Data reported in ChEMBL document CHEMBL1201862, “PubChem BioAssay data set” (2004).
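Growth conditions: 96-well plates. Treatment: test compound, 48 hours, 5 concentrations. Analysis: linear interpolation between bracketing concentrations; unreached endpoints set to highest concentration. The concentration for 50% growth inhibition is given as GI50.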 The source made the active and inactive calls. Rule as the data show it: active = GI50 up to about 1.1 µM and inactive = higher.

Key:
Test in all cases: NCI-60 cell line screen, 48 h
OVCAR-4 = tested on: OVCAR-4
K562 = tested on: K562
UO-31 = tested on: UO-31
MCF7 = tested on: MCF7
SW-620 = tested on: SW-620
MDA-MB-231 = tested on: MDA-MB-231
MDA-MB-435 = tested on: MDA-MB-435
OVCAR-5 = tested on: OVCAR-5
HCT-15 = tested on: HCT-15
RPMI-8226 = tested on: RPMI-8226
HCT-116 = tested on: HCT-116
SF-268 = tested on: SF-268
HL-60 = tested on: HL-60
SR = tested on: SR
ACHN = tested on: ACHN
HOP-92 = tested on: HOP-92
A549 = tested on: A549
SNB-19 = tested on: SNB-19
SNB-75 = tested on: SNB-75
KM12 = tested on: KM12
HOP-62 = tested on: HOP-62
NCI-H522 = tested on: NCI-H522
EKVX = tested on: EKVX
HT-29 = tested on: HT-29
M14 = tested on: M14
SK-OV-3 = tested on: SK-OV-3
SF-295 = tested on: SF-295
LOX IMVI = tested on: LOX IMVI
COLO 205 = tested on: COLO 205
TK-10 = tested on: TK-10
BT-549 = tested on: BT-549
UACC-62 = tested on: UACC-62
DU-145 = tested on: DU-145
Hs-578T = tested on: Hs-578T
RXF 393 = tested on: RXF 393
IGROV-1 = tested on: IGROV-1
SN12C = tested on: SN12C
SK-MEL-28 = tested on: SK-MEL-28
PC-3 = tested on: PC-3
SK-MEL-5 = tested on: SK-MEL-5
OVCAR-8 = tested on: OVCAR-8
Malme-3M = tested on: Malme-3M
NCI-H23 = tested on: NCI-H23
U-251 = tested on: U-251
CAKI-1 = tested on: CAKI-1
MOLT-4 = tested on: MOLT-4
A498 = tested on: A498
NCI/ADR-RES = tested on: NCI/ADR-RES
786-0 = tested on: 786-0
NCI-H226 = tested on: NCI-H226
SF-539 = tested on: SF-539
NCI-H460 = tested on: NCI-H460
SK-MEL-2 = tested on: SK-MEL-2
OVCAR-3 = tested on: OVCAR-3
UACC-257 = tested on: UACC-257
T47D = tested on: T47D
MDA-N = tested on: MDA-N
CCRF-CEM = tested on: CCRF-CEM
HCC 2998 = tested on: HCC 2998

Measured: GI50

CCOC1=C/C(=N\Nc2ccc([N+](=O)[O-])cc2)CCC1
7.94 µM: HCT-15
inactive: OVCAR-4 13.8 µM | K562 18.9 µM | UO-31 12.1 µM | MCF7 18.3 µM | SW-620 14.8 µM | MDA-MB-231 27.9 µM | MDA-MB-435 16.8 µM | OVCAR-5 42.4 µM | RPMI-8226 14.9 µM | HCT-116 41.7 µM | SF-268 11.3 µM | HL-60 13.6 µM | SR 4.53 µM | ACHN 12.3 µM | HOP-92 39.8 µM | A549 71.6 µM | SNB-19 34.7 µM | SNB-75 26.4 µM | KM12 14.3 µM | HOP-62 37.5 µM | NCI-H522 4.45 µM | EKVX 87.9 µM | HT-29 14.6 µM | M14 49.4 µM | SK-OV-3 44.7 µM | SF-295 13.1 µM | LOX IMVI 8.77 µM | COLO 205 15.3 µM | TK-10 25.5 µM | BT-549 13.6 µM | UACC-62 22.5 µM | DU-145 > 100 µM | Hs-578T 38.5 µM | RXF 393 21.9 µM | IGROV-1 15 µM | SN12C 29.9 µM | SK-MEL-28 23.2 µM | PC-3 53.6 µM | SK-MEL-5 18.9 µM | OVCAR-8 16.4 µM | Malme-3M 96.2 µM | NCI-H23 18.5 µM | U-251 19.3 µM | CAKI-1 28.8 µM | MOLT-4 4.83 µM | A498 26.3 µM | NCI/ADR-RES 30.1 µM | 786-0 32.4 µM | NCI-H226 41.9 µM | SF-539 48.1 µM | NCI-H460 25.4 µM | SK-MEL-2 21.5 µM | OVCAR-3 29.9 µM | UACC-257 63.8 µM

CC(C)(/C=N\O)NO
inactive: OVCAR-4 > 10 µM | K562 > 10 µM | UO-31 > 10 µM | MCF7 > 10 µM | SW-620 > 10 µM | MDA-MB-231 > 10 µM | T47D > 10 µM | MDA-MB-435 > 10 µM | OVCAR-5 > 10 µM | RPMI-8226 > 10 µM | HCT-116 > 10 µM | SF-268 > 10 µM | HL-60 > 10 µM | SR > 10 µM | ACHN > 10 µM | HOP-92 > 10 µM | A549 > 10 µM | SNB-19 > 10 µM | KM12 > 10 µM | HOP-62 > 10 µM | NCI-H522 > 10 µM | EKVX > 10 µM | HT-29 > 10 µM | M14 > 10 µM | SF-295 > 10 µM | LOX IMVI > 10 µM | COLO 205 > 10 µM | TK-10 > 10 µM | BT-549 > 10 µM | DU-145 > 10 µM | RXF 393 > 10 µM | MDA-N > 10 µM | CCRF-CEM > 10 µM | SN12C > 10 µM | PC-3 > 10 µM | OVCAR-8 > 10 µM | Malme-3M > 10 µM | NCI-H23 > 10 µM | U-251 > 10 µM | CAKI-1 > 10 µM | HCC 2998 > 10 µM | MOLT-4 > 10 µM | NCI/ADR-RES > 10 µM | 786-0 > 10 µM | NCI-H226 > 10 µM | NCI-H460 > 10 µM | SK-MEL-2 > 10 µM | OVCAR-3 > 10 µM | UACC-257 > 10 µM
> 10 µM: HCT-15

NC(=O)C(=O)c1ncn(Cc2ccccc2)c1N
> 100 µM: HCT-15
inactive: OVCAR-4 > 100 µM | K562 > 100 µM | MCF7 > 100 µM | SW-620 > 100 µM | MDA-MB-231 > 100 µM | T47D > 100 µM | MDA-MB-435 > 100 µM | OVCAR-5 > 100 µM | RPMI-8226 > 100 µM | HCT-116 > 100 µM | SF-268 > 100 µM | HL-60 > 100 µM | SR > 100 µM | ACHN > 100 µM | A549 > 100 µM | SNB-19 > 100 µM | SNB-75 > 100 µM | KM12 > 100 µM | HOP-62 > 100 µM | NCI-H522 > 100 µM | EKVX > 100 µM | HT-29 > 100 µM | M14 > 100 µM | SK-OV-3 > 100 µM | SF-295 > 100 µM | LOX IMVI 89.5 µM | COLO 205 > 100 µM | TK-10 > 100 µM | UACC-62 > 100 µM | DU-145 > 100 µM | Hs-578T > 100 µM | RXF 393 > 100 µM | MDA-N > 100 µM | CCRF-CEM > 100 µM | IGROV-1 > 100 µM | SN12C > 100 µM | SK-MEL-28 > 100 µM | PC-3 > 100 µM | SK-MEL-5 > 100 µM | OVCAR-8 > 100 µM | Malme-3M > 100 µM | NCI-H23 > 100 µM | U-251 > 100 µM | CAKI-1 > 100 µM | HCC 2998 > 100 µM | A498 > 100 µM | NCI/ADR-RES > 100 µM | 786-0 > 100 µM | NCI-H226 > 100 µM | SF-539 > 100 µM | NCI-H460 > 100 µM | SK-MEL-2 > 100 µM | OVCAR-3 > 100 µM | UACC-257 > 100 µM
